{"source": "patent US20060270658A1", "about": "“Use of oxcarbazepine for the treatment of diabetic neuropathic pain and the improvement of sleep” (priority 2003, published 2006)", "key": {"[1]": {"system": "Patients suffering from diabetic neuropathic pain", "experiment": "Clinical study in human diabetic neuropathic pain patients (double-blind, placebo-controlled, 112 days)", "assay_type": "in vivo", "details": "1800 mg/day total dosage", "description": "FIG. 1 depicts the average VAS score (y-axis) during the last week of treatment of the clinical study described in Example 1. The darker area represents the scores obtained in the group of patients obtaining oxcarbazepine at a daily dosage of 1800 mg (N=68). The brighter area represents the score for the placebo group (N=76). FIG. 2 illustrates the average VAS score (y-axis) by week (x-axis) of the clinical study described in Example 1. The upper lines represents the score for the placebo group (N=76). The lower line represents the scores obtained in the group of patients obtaining oxcarbazepine at a daily dosage of 1800 mg (N=68). In a clinical study in a Caucasian patient population, a full double-blind treatment was conducted for a period of 112 days. Patients suffering from diabetic neuropathic pain obtained placebo or oxcarbazepine."}, "[2]": {"system": "patients with neuropathic pain of diabetic origin", "experiment": "Impact of oxcarbazepine on sleep in human diabetic neuropathic pain patients (daily sleep questionnaire)", "assay_type": "in vivo", "details": "up to 1800 mg/day; for Awaken from sleep, % days during double-blind phase, mean (SD): P 0.02 vs placebo", "description": "In a multicenter, placebo-controlled, double-blind, parallel-group study the efficacy of oxcarbazepine up to 1800 mg/day in patients with neuropathic pain of diabetic origin was evaluated. The study consisted of three phases: a pre-randomization screening phase (2 weeks); a double-blind treatment phase (18 weeks); and an open-label extension phase (52 weeks). The double-blind treatment phase was further divided into a titration period of 4 weeks, a maintenance period of 12 weeks, and a follow-up period of 2 weeks. Patients who met all inclusion criteria were randomized in a 1:1 ratio to receive either study medication or placebo during double-blind treatment (16 weeks). After randomization into the double-blind treatment phase, oxcarbazepine or placebo was initiated at 300 mg/day, and increased 3 days later to 300 mg twice a day (600 mg/day). After this, oxcarbazepine was titrated as tolerated up to a maximum target dose of 900 mg twice a day (1800 mg/day) in increments of 300 mg every 5 days over the 4-week titration period. During the remaining 12 weeks of the study (maintenance period), oxcarbazepine treatment remained at the dose reached by day 28. Patient response to the following three questions from the daily sleep questionnaire were used to assess disturbances of sleep over double-blind treatment: 1) Did your pain delay you in getting to sleep last night? 2) Did your pain awaken you from sleep more than one time last night? 3) Did you feel rested after sleep this morning?"}, "[3]": {"details": "difference did not achieve statistical significance"}}, "data": [{"smiles": "NC(=O)N1c2ccccc2CC(=O)c2ccccc21", "note": "[Oxcarbazepine, 10-oxo-10, 11-dihydro-5H-dibenz[b,f]azepine-5-carboxamide]", "values": [{"measurement": "average Visual Analog Scale (VAS) for pain severity score during the last week of double-blind treatment, versus placebo", "setting": "[1]; Caucasian patient population, 112 days double-blind, p=0.0108", "result": "statistically significantly superior to placebo"}, {"measurement": "percentage of responders (those felt slightly, much, or very much improved)", "setting": "[1]; placebo group 39.7%, p=0.0003", "result": 73.2, "unit": "%"}, {"measurement": "Awaken from sleep, % days during double-blind phase, mean (SD)", "setting": "[2]; ITT population, n = 68", "result": "31 (29) % days"}, {"measurement": "Awaken from sleep, % days during double-blind phase, mean (SD)", "setting": "[2]; ITT population, n = 68, listed as oxcarbazepine", "result": 31, "unit": "% days"}, {"measurement": "Delayed getting to sleep, % days during double-blind phase, mean (SD)", "setting": "[2]; ITT population, n = 68, P 0.09 vs placebo", "result": "28 (31) % days"}, {"measurement": "Felt rested after sleep, % days during double-blind phase, mean (SD)", "setting": "[2]; ITT population, n = 68, P 0.17 vs placebo", "result": "55 (34) % days"}, {"measurement": "proportion of patients experiencing delays in getting to sleep, in comparison with placebo", "setting": "[2]; [3]", "result": "lower proportion"}, {"measurement": "proportion of patients who felt rested after sleep, in comparison with placebo", "setting": "[2]; [3]", "result": "greater proportion"}]}]}
